Source: ChEMBL document CHEMBL5126497, “2-Difluoromethylpyridine as a bioisosteric replacement of pyridine-N-oxide: the case of quorum sensing inhibitors” (RSC Med Chem, 2021)
Active and inactive are the calls of the source. No cut-off for these calls is given here.

How the values were obtained:
[1] = Inhibition of quorum sensing system in Pseudomonas aeruginosa transfected with lasB-gfp
[2] = Inhibition of quorum sensing system in Chromobacterium violaceum ATCC 31352 assessed as reduction in violacein production at 100 uM relative to control
Homo sapiens = species: Homo sapiens; experiment: Activation of protease (unknown origin); settings: filed as activator
Pseudomonas aeruginosa = experiment: Inhibition of biofilm formation in Pseudomonas aeruginosa at 100 uM measured after 48 hrs relative to control; type: functional

IC50 [1] [µM] | inhibition [2] [%] | Activity (Homo sapiens) | inhibition [1] | SMILES | inhibition at 100 µM (Pseudomonas aeruginosa) [%]
27 | 59 | Active |  | COC(=O)c1ccnc(C(F)F)c1 | 75
 |  |  | Active | FC(F)c1ccncc1 | 
 |  |  | Active | N#Cc1cc[n+]([O-])cc1 | 
19 | 66 | Active |  | N#Cc1ccnc(C(F)F)c1 | 85
 |  |  | Active | COC(=O)c1ccncc1C(F)F | 
 |  |  | Active | FC(F)c1cc(-c2ccccc2)ccn1 | 
33 | 37.5 | Active |  | O=[N+]([O-])c1cc[n+]([O-])cc1 | 71
 |  |  | Active | FC(F)c1cc(Oc2ccccc2)ccn1 | 
 |  |  | Active | FC(F)c1nccc2ccccc12 | 
35 | 57 | Active |  | O=C(c1ccc(Cl)cc1)c1ccnc(C(F)F)c1 | 73
 |  |  | Active | FC(F)c1cc(Cc2ccc(Cl)cc2)ccn1 | 
 |  |  | Active | FC(F)c1ccc2ccccc2n1 | 
 |  |  | Active | FC(F)c1ccccn1 | 
 |  |  | Active | FC(F)c1cccnc1 | 
